According to PubChem BioAssay (NCI):
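A five-concentration, 48-hour dose response in 96-well plates underlies each endpoint, interpolated linearly between surrounding concentrations. The concentration for 50% growth inhibition is given as GI50. TGI: total growth inhibition.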

These compounds were tested on DLD-1 colon (assay: NCI tumour cell line growth inhibition, 48 h).

Compound | TGI [µM]
COc1c(O)c(O)cc2c1-c1ccc(OC)c(=O)cc1C(NC(C)=O)CC2 (stereo not given) | > 100
COc1cc2c(c(O)c1O)-c1ccc(OC)c(=O)cc1C(NC(C)=O)CC2 (stereo not given) | > 100
NC(=O)c1ncn2c1NC(=O)CC2 | > 100
C[C@]12CC[C@H](O)C=C1CC[C@@H]1[C@@H]2CC[C@]2(C)C(c3ccc(=O)oc3)CC[C@]12O (stereo not given in full) | 0.0392
COc1cc(CC(C)N)ccc1O (stereo not given) | > 100
Cc1c2ccncc2c(C)c2c1[nH]c1ccccc12 | 2.33
O=C1c2cccc(NCCNCCO)c2C(=O)c2cccc(NCCNCCO)c21 | 12.6

What follows are compounds tested on DMS 114 small cell lung (assay: NCI tumour cell line growth inhibition, 48 h).

Compound | TGI [µM]
COc1c(O)c(O)cc2c1-c1ccc(OC)c(=O)cc1C(NC(C)=O)CC2 (stereo not given) | 6.43
NC(=O)c1ncn2c1NC(=O)CC2 | > 100
C[C@]12CC[C@H](O)C=C1CC[C@@H]1[C@@H]2CC[C@]2(C)C(c3ccc(=O)oc3)CC[C@]12O (stereo not given in full) | < 0.0125
COc1cc(CC(C)N)ccc1O (stereo not given) | > 100
Cc1c2ccncc2c(C)c2c1[nH]c1ccccc12 | 3.09
O=C1c2cccc(NCCNCCO)c2C(=O)c2cccc(NCCNCCO)c21 | 1.41

What follows are compounds tested on DMS 273 small cell lung (assay: NCI tumour cell line growth inhibition, 48 h).

Compound | TGI [µM]
COc1c(O)c(O)cc2c1-c1ccc(OC)c(=O)cc1C(NC(C)=O)CC2 (stereo not given) | > 59.8
COc1cc2c(c(O)c1O)-c1ccc(OC)c(=O)cc1C(NC(C)=O)CC2 (stereo not given) | > 100
NC(=O)c1ncn2c1NC(=O)CC2 | > 100
C[C@]12CC[C@H](O)C=C1CC[C@@H]1[C@@H]2CC[C@]2(C)C(c3ccc(=O)oc3)CC[C@]12O (stereo not given in full) | 0.0427
COc1cc(CC(C)N)ccc1O (stereo not given) | > 100
Cc1c2ccncc2c(C)c2c1[nH]c1ccccc12 | 2.22
O=C1c2cccc(NCCNCCO)c2C(=O)c2cccc(NCCNCCO)c21 | 7.19

These compounds were tested on HOP-18 NSCLC (assay: NCI tumour cell line growth inhibition, 48 h).

Compound | TGI [µM] | GI50 [µM]
COc1c(O)c(O)cc2c1-c1ccc(OC)c(=O)cc1C(NC(C)=O)CC2 (stereo not given) | > 100 | –
COc1cc2c(c(O)c1O)-c1ccc(OC)c(=O)cc1C(NC(C)=O)CC2 (stereo not given) | > 100 | –
NC(=O)c1ncn2c1NC(=O)CC2 | > 100 | –
C[C@]12CC[C@H](O)C=C1CC[C@@H]1[C@@H]2CC[C@]2(C)C(c3ccc(=O)oc3)CC[C@]12O (stereo not given in full) | 0.0151 | –
COc1cc(CC(C)N)ccc1O (stereo not given) | > 100 | –
Cc1c2ccncc2c(C)c2c1[nH]c1ccccc12 | 6.38 | –
O=C1c2cccc(NCCNCCO)c2C(=O)c2cccc(NCCNCCO)c21 | 7.79 | –
O=C([CH-]C(=O)c1ccccc1)c1ccccc1.O=C([CH-]C(=O)c1ccccc1)c1ccccc1.[O]=[U+2]=[O] | 24.9 | 5.3

These compounds were tested on LXFL 529 NSCLC (assay: NCI tumour cell line growth inhibition, 48 h).

Compound | TGI [µM]
COc1c(O)c(O)cc2c1-c1ccc(OC)c(=O)cc1C(NC(C)=O)CC2 (stereo not given) | 25.2
COc1cc2c(c(O)c1O)-c1ccc(OC)c(=O)cc1C(NC(C)=O)CC2 (stereo not given) | 44.3
COc1cc(CC(C)N)ccc1O (stereo not given) | > 100
O=C1c2cccc(NCCNCCO)c2C(=O)c2cccc(NCCNCCO)c21 | 2.95

These compounds were tested on M19-MEL melanoma (assay: NCI tumour cell line growth inhibition, 48 h).

Compound | TGI [µM]
COc1c(O)c(O)cc2c1-c1ccc(OC)c(=O)cc1C(NC(C)=O)CC2 (stereo not given) | 23.7
COc1cc2c(c(O)c1O)-c1ccc(OC)c(=O)cc1C(NC(C)=O)CC2 (stereo not given) | 26.1
NC(=O)c1ncn2c1NC(=O)CC2 | > 100
C[C@]12CC[C@H](O)C=C1CC[C@@H]1[C@@H]2CC[C@]2(C)C(c3ccc(=O)oc3)CC[C@]12O (stereo not given in full) | 0.071
Cc1c2ccncc2c(C)c2c1[nH]c1ccccc12 | 2.16

The compounds below were run on P388 leukemia (assay: NCI tumour cell line growth inhibition, 48 h).

Compound | TGI [µM]
NC(=O)c1ncn2c1NC(=O)CC2 | > 31.6
C[C@]12CC[C@H](O)C=C1CC[C@@H]1[C@@H]2CC[C@]2(C)C(c3ccc(=O)oc3)CC[C@]12O (stereo not given in full) | 125
Cc1c2ccncc2c(C)c2c1[nH]c1ccccc12 | 2.89

The compounds below were run on P388/ADR leukemia (assay: NCI tumour cell line growth inhibition, 48 h).

Compound | TGI [µM]
NC(=O)c1ncn2c1NC(=O)CC2 | > 100
C[C@]12CC[C@H](O)C=C1CC[C@@H]1[C@@H]2CC[C@]2(C)C(c3ccc(=O)oc3)CC[C@]12O (stereo not given in full) | 125
Cc1c2ccncc2c(C)c2c1[nH]c1ccccc12 | 4.32

Each compound was assayed on RXF-631 renal (assay: NCI tumour cell line growth inhibition, 48 h).

Compound | TGI [µM]
COc1c(O)c(O)cc2c1-c1ccc(OC)c(=O)cc1C(NC(C)=O)CC2 (stereo not given) | 68.4
COc1cc2c(c(O)c1O)-c1ccc(OC)c(=O)cc1C(NC(C)=O)CC2 (stereo not given) | > 92.9
COc1cc(CC(C)N)ccc1O (stereo not given) | > 100
O=C1c2cccc(NCCNCCO)c2C(=O)c2cccc(NCCNCCO)c21 | 16.4

What follows are compounds tested on SN12K1 renal (assay: NCI tumour cell line growth inhibition, 48 h).

Compound | TGI [µM]
NC(=O)c1ncn2c1NC(=O)CC2 | > 100
C[C@]12CC[C@H](O)C=C1CC[C@@H]1[C@@H]2CC[C@]2(C)C(c3ccc(=O)oc3)CC[C@]12O (stereo not given in full) | 0.0201
Cc1c2ccncc2c(C)c2c1[nH]c1ccccc12 | 3.37

The compounds below were run on SNB-78 CNS (assay: NCI tumour cell line growth inhibition, 48 h).

Compound | TGI [µM]
COc1c(O)c(O)cc2c1-c1ccc(OC)c(=O)cc1C(NC(C)=O)CC2 (stereo not given) | > 100
COc1cc2c(c(O)c1O)-c1ccc(OC)c(=O)cc1C(NC(C)=O)CC2 (stereo not given) | > 100
NC(=O)c1ncn2c1NC(=O)CC2 | > 86.8
C[C@]12CC[C@H](O)C=C1CC[C@@H]1[C@@H]2CC[C@]2(C)C(c3ccc(=O)oc3)CC[C@]12O (stereo not given in full) | 0.503
COc1cc(CC(C)N)ccc1O (stereo not given) | > 100
Cc1c2ccncc2c(C)c2c1[nH]c1ccccc12 | 7.88
O=C1c2cccc(NCCNCCO)c2C(=O)c2cccc(NCCNCCO)c21 | 6.91

Each compound was assayed on XF 498 CNS (assay: NCI tumour cell line growth inhibition, 48 h).

Compound | TGI [µM]
COc1c(O)c(O)cc2c1-c1ccc(OC)c(=O)cc1C(NC(C)=O)CC2 (stereo not given) | 54.2
COc1cc2c(c(O)c1O)-c1ccc(OC)c(=O)cc1C(NC(C)=O)CC2 (stereo not given) | 38.5
NC(=O)c1ncn2c1NC(=O)CC2 | > 100
C[C@]12CC[C@H](O)C=C1CC[C@@H]1[C@@H]2CC[C@]2(C)C(c3ccc(=O)oc3)CC[C@]12O (stereo not given in full) | 0.0505
COc1cc(CC(C)N)ccc1O (stereo not given) | > 100
Cc1c2ccncc2c(C)c2c1[nH]c1ccccc12 | 3.29
O=C1c2cccc(NCCNCCO)c2C(=O)c2cccc(NCCNCCO)c21 | 1.88
